In US8889874B2, “Imidazolone-chalcone derivatives as potential anticancer agent and process for the preparation thereof” (Council of Scientific and Industrial Research, priority 2010, dated 2014):
Read-outs that look alike come from different tables or passages of the source.

How the values were obtained:
Experiment in all cases: NCI anticancer screen, SRB assay, 48 h
Format in all cases: cell-based, human
Details in all cases: Homo sapiens
HT29 (colon) = tested on: HT29 (colon)
Procedure: (§1) Some of biological activity studies were carried out at the National Cancer Institute (NCI), Maryland, USA.
(§2) The compounds were evaluated for anticancer activity against fifty three human cancer cells derived from nine cancer types (leukemia cell line, non-small-cell lung cell line, colon cell line, CNS cell line, melanoma cell line, ovarian cell line, prostate cell line, and breast cancer cell line) as shown in Table 1. For each compound, dose response curves for each cell line were measured at a minimum of five concentrations at 10 fold dilutions. A protocol of 48 h continuous drug exposure was used and a sulforhodamine B (SRB) protein assay was used to estimate cell viability or growth.

[1] = tested on: EKVX (non-small cell lung)
Procedure: as §1, §2

HCT-15 (colon) = tested on: HCT-15 (colon)
Procedure: as §1, §2

BT-549 (breast) = tested on: BT-549 (breast)
Procedure: as §1, §2

MCF7 (breast) = tested on: MCF7 (breast)
Procedure: as §1, §2

HS 578T (breast) = tested on: HS 578T (breast)
Procedure: as §1, §2

MDA-MB-231/ATCC (breast) = tested on: MDA-MB-231/ATCC (breast)
Procedure: as §1, §2

[2] = tested on: K-562 (leukemia cell line)
Procedure: as §1, §2

SK-OV-3 (ovarian) = tested on: SK-OV-3 (ovarian)
Procedure: as §1, §2

SW-620 (colon) = tested on: SW-620 (colon)
Procedure: as §1, §2

[3] = tested on: NCI-H226 (non-small cell lung)
Procedure: as §1, §2

KM12 (colon) = tested on: KM12 (colon)
Procedure: as §1, §2

SK-MEL-5 (melanoma) = tested on: SK-MEL-5 (melanoma)
Procedure: as §1, §2

MALME-3M (melanoma) = tested on: MALME-3M (melanoma)
Procedure: as §1, §2

SF-268 (CNS) = tested on: SF-268 (CNS)
Procedure: as §1, §2

HCT-116 (colon) = tested on: HCT-116 (colon)
Procedure: as §1, §2

A498 (renal) = tested on: A498 (renal)
Procedure: as §1, §2

786-0 (renal) = tested on: 786-0 (renal)
Procedure: as §1, §2

SF-295 (CNS) = tested on: SF-295 (CNS)
Procedure: as §1, §2

UACC-62 (melanoma) = tested on: UACC-62 (melanoma)
Procedure: as §1, §2

UACC-257 (melanoma) = tested on: UACC-257 (melanoma)
Procedure: as §1, §2

MDA-MB-435 (melanoma) = tested on: MDA-MB-435 (melanoma)
Procedure: as §1, §2

CAKI-1 (renal) = tested on: CAKI-1 (renal)
Procedure: as §1, §2

OVCAR-4 (ovarian) = tested on: OVCAR-4 (ovarian)
Procedure: as §1, §2

[4] = tested on: RPMI-8226 (leukemia cell line)
Procedure: as §1, §2

OVCAR-8 (ovarian) = tested on: OVCAR-8 (ovarian)
Procedure: as §1, §2

LOX IMVI (melanoma) = tested on: LOX IMVI (melanoma)
Procedure: as §1, §2

[5] = tested on: A549/ATCC (non-small cell lung)
Procedure: as §1, §2

TD-47D (breast) = tested on: TD-47D (breast)
Procedure: as §1, §2

SNB-75 (CNS) = tested on: SNB-75 (CNS)
Procedure: as §1, §2

PC-3 (prostate) = tested on: PC-3 (prostate)
Procedure: as §1, §2

[6] = tested on: NCI-H322M (non-small cell lung)
Procedure: as §1, §2

[7] = tested on: NCI-H23 (non-small cell lung)
Procedure: as §1, §2

OVCAR-3 (ovarian) = tested on: OVCAR-3 (ovarian)
Procedure: as §1, §2

[8] = tested on: NCI-H522 (non-small cell lung)
Procedure: as §1, §2

TK-10 (renal) = tested on: TK-10 (renal)
Procedure: as §1, §2

[9] = HT-29, 48 h exposure, SRB, read-out: GI50
[10] = HT-29, read-out: pGI50 (-log of molar concentration causing 50% inhibition of net cell growth) (converted)
[11] = 48 h exposure, SRB, read-out: GI50
[12] = read-out: pGI50 (-log of molar concentration causing 50% inhibition of net cell growth) (converted)
[13] = K562, 48 h exposure, SRB, read-out: GI50
[14] = K562, read-out: pGI50 (-log of molar concentration causing 50% inhibition of net cell growth) (converted)
[15] = Malme-3M, read-out: pGI50 (-log of molar concentration causing 50% inhibition of net cell growth) (converted)
[16] = MALME-3M, 48 h exposure, SRB, read-out: GI50
[17] = PC-3, read-out: pGI50 (-log of molar concentration causing 50% inhibition of net cell growth) (converted)
[18] = one prostate cancer cell line (PC-3), exposure at least 48 hrs, read-out: GI50

## O=C(/C=C/c1cccc(O)c1)c1cccc(-n2cc(-c3ccccc3)[nH]c2=O)c1 [4a, 1-3-[(E)-3-(3-hydroxyphenyl)-2-propenoyl]phenyl-4-phenyl-2,3-dihydro-1H-2-imidazolone]
HT29 (colon); [9]
  GI50: 3.33 µM
HT29 (colon); [10]
  GI50: 3.31 µM
[1]; [11]
  GI50: 15.6 µM
[1]; [12]
  GI50: 15.5 µM
HCT-15 (colon); [11]
  GI50: 3.1 µM
HCT-15 (colon); [12]
  GI50: 3.09 µM
BT-549 (breast); [11]
  GI50: 9.32 µM
BT-549 (breast); [12]
  GI50: 9.33 µM
MCF7 (breast); [11]
  GI50: 2.47 µM
MCF7 (breast); [12]
  GI50: 2.45 µM
HS 578T (breast); [11]
  GI50: 6.14 µM
HS 578T (breast); [12]
  GI50: 6.17 µM
MDA-MB-231/ATCC (breast); [11]
  GI50: 3.86 µM
MDA-MB-231/ATCC (breast); [12]
  GI50: 3.89 µM
[2]; [13]
  GI50: 3.35 µM
[2]; [14]
  GI50: 3.39 µM
SK-OV-3 (ovarian); [11]
  GI50: 11.1 µM
SK-OV-3 (ovarian); [12]
  GI50: 11.2 µM
SW-620 (colon); [11]
  GI50: 2.41 µM
SW-620 (colon); [12]
  GI50: 2.4 µM
[3]; [11]
  GI50: 24.8 µM
[3]; [12]
  GI50: 24.5 µM
KM12 (colon); [11]
  GI50: 1.83 µM
KM12 (colon); [12]
  GI50: 1.82 µM
SK-MEL-5 (melanoma); [11]
  GI50: 3.18 µM
SK-MEL-5 (melanoma); [12]
  GI50: 3.16 µM
MALME-3M (melanoma); [15]
  GI50: 6.17 µM
MALME-3M (melanoma); [16]
  GI50: 6.21 µM
SF-268 (CNS); [11]
  GI50: 4.53 µM
SF-268 (CNS); [12]
  GI50: 4.57 µM
HCT-116 (colon); [11]
  GI50: 3.02 µM
HCT-116 (colon); [12]
  GI50: 3.02 µM
A498 (renal); [11]
  GI50: 14.3 µM
A498 (renal); [12]
  GI50: 14.5 µM
786-0 (renal); [11]
  GI50: 2.98 µM
786-0 (renal); [12]
  GI50: 2.95 µM
SF-295 (CNS); [11]
  GI50: 18.2 µM
SF-295 (CNS); [12]
  GI50: 18.2 µM
UACC-62 (melanoma); [11]
  GI50: 3.65 µM
UACC-62 (melanoma); [12]
  GI50: 3.63 µM
UACC-257 (melanoma); [11]
  GI50: 7.68 µM
UACC-257 (melanoma); [12]
  GI50: 7.76 µM
MDA-MB-435 (melanoma); [11]
  GI50: 3.12 µM
MDA-MB-435 (melanoma); [12]
  GI50: 3.09 µM
CAKI-1 (renal); [11]
  GI50: 13.3 µM
CAKI-1 (renal); [12]
  GI50: 13.2 µM
OVCAR-4 (ovarian); [11]
  GI50: 5.3 µM
OVCAR-4 (ovarian); [12]
  GI50: 5.25 µM
[4]; [11]
  GI50: 2.15 µM
[4]; [12]
  GI50: 2.14 µM
OVCAR-8 (ovarian); [11]
  GI50: 2.8 µM
OVCAR-8 (ovarian); [12]
  GI50: 2.82 µM
LOX IMVI (melanoma); [11]
  GI50: 1.85 µM
LOX IMVI (melanoma); [12]
  GI50: 1.86 µM
[5]; [11]
  GI50: 3.89 µM
[5]; [12]
  GI50: 3.89 µM
TD-47D (breast); [11]
  GI50: 4.24 µM
TD-47D (breast); [12]
  GI50: 4.27 µM
SNB-75 (CNS); [11]
  GI50: 12.1 µM
SNB-75 (CNS); [12]
  GI50: 12 µM
PC-3 (prostate); [17]
  GI50: 2.82 µM
PC-3 (prostate); [18]
  GI50: 2.82 µM
[6]; [11]
  GI50: 10.6 µM
[6]; [12]
  GI50: 10.7 µM
[7]; [11]
  GI50: 3.35 µM
[7]; [12]
  GI50: 3.39 µM
OVCAR-3 (ovarian); [11]
  GI50: 3.08 µM
OVCAR-3 (ovarian); [12]
  GI50: 3.09 µM

## O=C(/C=C/c1cccc(O)c1)c1cccc(-n2cc(-c3ccc4ccccc4c3)[nH]c2=O)c1 [12b, 1-3-[(E)-3-(3-hydroxyphenyl)-2-propenoyl]phenyl-4-(2-naphthyl)-2,3-dihydro-1H-2-imidazolone]
[8]; [11]
  GI50: 1.29 µM
[8]; [12]
  GI50: 1.29 µM
HT29 (colon); [9]
  GI50: 1.54 µM
HT29 (colon); [10]
  GI50: 1.55 µM
[1]; [11]
  GI50: 2.64 µM
[1]; [12]
  GI50: 2.63 µM
HCT-15 (colon); [11]
  GI50: 1.56 µM
HCT-15 (colon); [12]
  GI50: 1.55 µM
BT-549 (breast); [11]
  GI50: 1.89 µM
BT-549 (breast); [12]
  GI50: 1.91 µM
MCF7 (breast); [11]
  GI50: 0.47 µM
MCF7 (breast); [12]
  GI50: 0.468 µM
HS 578T (breast); [11]
  GI50: 2.01 µM
HS 578T (breast); [12]
  GI50: 2 µM
MDA-MB-231/ATCC (breast); [11]
  GI50: 1.66 µM
MDA-MB-231/ATCC (breast); [12]
  GI50: 1.66 µM
[2]; [13]
  GI50: 1.43 µM
[2]; [14]
  GI50: 1.45 µM
TK-10 (renal); [11]
  GI50: 3.45 µM
TK-10 (renal); [12]
  GI50: 3.47 µM
SK-OV-3 (ovarian); [11]
  GI50: 2.15 µM
SK-OV-3 (ovarian); [12]
  GI50: 2.14 µM
SW-620 (colon); [11]
  GI50: 0.22 µM
SW-620 (colon); [12]
  GI50: 0.219 µM
[3]; [11]
  GI50: 2.43 µM
[3]; [12]
  GI50: 2.45 µM
KM12 (colon); [11]
  GI50: 1.21 µM
KM12 (colon); [12]
  GI50: 1.2 µM
SK-MEL-5 (melanoma); [11]
  GI50: 1.16 µM
SK-MEL-5 (melanoma); [12]
  GI50: 1.15 µM
MALME-3M (melanoma); [15]
  GI50: 2.09 µM
MALME-3M (melanoma); [16]
  GI50: 2.08 µM
SF-268 (CNS); [11]
  GI50: 1.73 µM
SF-268 (CNS); [12]
  GI50: 1.74 µM
HCT-116 (colon); [11]
  GI50: 0.4 µM
HCT-116 (colon); [12]
  GI50: 0.398 µM
786-0 (renal); [11]
  GI50: 1.74 µM
786-0 (renal); [12]
  GI50: 1.74 µM
SF-295 (CNS); [11]
  GI50: 1.44 µM
SF-295 (CNS); [12]
  GI50: 1.45 µM
UACC-62 (melanoma); [11]
  GI50: 1.8 µM
UACC-62 (melanoma); [12]
  GI50: 1.82 µM
UACC-257 (melanoma); [11]
  GI50: 4.13 µM
UACC-257 (melanoma); [12]
  GI50: 4.17 µM
MDA-MB-435 (melanoma); [11]
  GI50: 1.71 µM
MDA-MB-435 (melanoma); [12]
  GI50: 1.7 µM
CAKI-1 (renal); [11]
  GI50: 1.45 µM
CAKI-1 (renal); [12]
  GI50: 1.45 µM
OVCAR-4 (ovarian); [11]
  GI50: 1.68 µM
OVCAR-4 (ovarian); [12]
  GI50: 1.7 µM
[4]; [11]
  GI50: 1.67 µM
[4]; [12]
  GI50: 1.66 µM
OVCAR-8 (ovarian); [11]
  GI50: 2.33 µM
OVCAR-8 (ovarian); [12]
  GI50: 2.34 µM
LOX IMVI (melanoma); [11]
  GI50: 0.85 µM
LOX IMVI (melanoma); [12]
  GI50: 0.851 µM
[5]; [11]
  GI50: 3.38 µM
[5]; [12]
  GI50: 3.39 µM
TD-47D (breast); [11]
  GI50: 1.11 µM
TD-47D (breast); [12]
  GI50: 1.12 µM
SNB-75 (CNS); [11]
  GI50: 1.88 µM
SNB-75 (CNS); [12]
  GI50: 1.86 µM
PC-3 (prostate); [17]
  GI50: 1.86 µM
PC-3 (prostate); [18]
  GI50: 1.85 µM
[6]; [11]
  GI50: 1.66 µM
[6]; [12]
  GI50: 1.66 µM
[7]; [11]
  GI50: 1.52 µM
[7]; [12]
  GI50: 1.51 µM
OVCAR-3 (ovarian); [11]
  GI50: 1.33 µM
OVCAR-3 (ovarian); [12]
  GI50: 1.32 µM
